The supplement of paper PMC4858399
Counter-ions that a name gives are not always drawn.

What was measured:
[1] = test system: Caenorhabditis elegans N2; experiment: mean nematode size ln(EXT) after 48 h, plate-adjusted (DMSO control set to 6) (ln(EXT), control-adjusted); higher = larger nematodes / less growth inhibition; conditions: exposure time 48 h
How it was run: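 C. elegans N2 larvae, synchronised at L1, grew for 48 h at 20°C in K-medium with killed OP50, 1% DMSO and 0.5–200 µM chemical. Mean size per well was derived from natural-logged Biosort extinction after a growth model removed debris. Adjustment across plates involved subtracting the vehicle control mean and adding 6.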

[2] = test system: Caenorhabditis elegans N2; experiment: lowest effective concentration for larval growth inhibition (size below effect threshold); higher = less potent; conditions: exposure time 48 h
How it was run: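 C. elegans N2 L1 larvae (50 per 96-well) were grown 48 h at 20°C in K-medium with killed bacteria, 1% DMSO and 0.5, 1, 5, 10, 50, 100 or 200 µM chemical. The Biosort measured per-worm extinction as size, and these were log-transformed into well means. The lowest effective concentration is the first dose where the plate-adjusted mean size drops under the 5.665 threshold and stays under it at higher doses.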

SMILES	mean nematode size ln(EXT) (ln) ([1]; 0.5 µM)	mean nematode size ln(EXT) (ln) ([1]; 1 µM)	mean nematode size ln(EXT) (ln) ([1]; 5 µM)	mean nematode size ln(EXT) (ln) ([1]; 10 µM)	mean nematode size ln(EXT) (ln) ([1]; 50 µM)	mean nematode size ln(EXT) (ln) ([1]; 100 µM)	mean nematode size ln(EXT) (ln) ([1]; 200 µM)	lowest effective concentration [2] [µM]
CCOC(=O)CC(O)(CC(=O)OCC)C(=O)OCC [Triethyl citrate]	6.01	5.99	6.04	6.03	6.03	6.08	5.71	> 200
OCCN(CCO)CCO [Triethanolamine]	5.65	5.64	5.71	5.66	5.09	5.38	5.69	> 200
CC(=O)Nc1ccc(O)cc1 [Acetaminophen]	6.04	6.05	6.04	6.12	6.09	6.04	5.74	> 200
COc1cc(C=O)ccc1O [4-Hydroxy-3-methoxy-benzaldehyde]	5.83	5.83	5.77	5.77	5.69	5.84	5.8	> 200
COC(=O)c1ccccc1C(=O)OC [Dimethyl phthalate]	5.82	5.99	6.07	6.01	6.18	6.01	5.98	> 200
CCOCCOCCO [Diethylene glycol monoethyl ether]	6.02	6.03	6.07	6.05	6.03	6.06	5.76	> 200
CCNc1nc(Cl)nc(NC(C)(C)C#N)n1 [Cyanazine]	5.89	5.95	5.88	6.03	6.26	6.42	5.86	> 200
CCC(C)n1c(=O)[nH]c(C)c(Br)c1=O (configuration not stated) [Bromacil]	6.06	6.23	6.18	6.3	6.1	6.23	5.81	> 200
CCCC(CCC)C(=O)O [Valproic Acid]	5.81	5.92	6.12	6.03	6.06	6.03	5.91	> 200
N#CCCCCC#N [Hexanedinitrile]	5.89	5.82	5.87	5.81	5.96	5.75	5.8	> 200
N#C[C@@H]1CC(F)(F)CN1C(=O)CNC1CC2CCC(C1)N2c1ncccn1 (some centres not stated)	5.82	5.89	5.85	6	5.95	5.78	5.85	> 200
c1ccc2occc2c1 [2,3-Benzofuran]	6.06	6.1	6.03	6.13	6.02	6.03	5.78	> 200
O=c1c(O)c(-c2ccc(O)c(O)c2)oc2cc(O)cc(O)c12 [2-(3,4-Dihydroxy-phenyl)-3,5,7-trihydroxy-chromen-4-one]	5.8	5.86	5.86	5.79	4.75	5.87	5.75	> 200
C[C@](N)(Cc1ccc(O)c(O)c1)C(=O)O [(-)-3-(3,4-Dihydroxyphenyl)-2-methyl-L-alanine sesquihydrate]	5.88	5.88	5.89	5.89	5.88	5.87	5.85	> 200
O=C(O)c1ccccc1C(=O)OCc1ccccc1 [Benzyl hydrogen phthalate]	5.72	5.73	5.79	5.84	5.73	5.67	5.74	> 200
CC(C)C1(C)N=C(c2nc3ccccc3cc2C(=O)O)NC1=O (configuration not stated) [Imazaquin]	6.13	6.14	6.13	6.33	6.08	6.06	6.1	> 200
CC(=O)OCC(COC(C)=O)OC(C)=O [Triacetin]	5.85	5.99	5.89	5.85	5.97	5.78	5.73	> 200
Cn1cnc2c1c(=O)[nH]c(=O)n2C [Theobromine]	5.83	5.87	5.98	6.03	5.87	5.86	5.83	> 200
CCNc1ccccc1 [N-Ethyl aniline]	5.68	5.67	5.68	5.67	5.52	5.56	5.67	> 200
O=C(O)c1cc(/N=N/c2ccc(S(=O)(=O)Nc3ccccn3)cc2)ccc1O [Sulfasalazine]	5.85	5.91	5.87	5.87	5.92	5.9	5.94	> 200
O=C1CCCO1 [4-Butyrolactone]	6.1	6.08	6	6.1	6.09	6.02	5.81	> 200
CCCCCCC(=O)OCC [Heptanoic acid, ethyl ester]	5.88	5.93	5.82	6.08	5.85	5.89	6.02	> 200
COc1cc(-c2ccc(N)c(OC)c2)ccc1N [3,3'-Dimethoxybenzidine dihydrochloride]	5.89	5.91	5.9	5.65	5.72	5.41	6.4	> 200
CCCCC(CC)C(=O)O (configuration not stated) [2-Ethylhexanoic acid]	5.7	5.88	5.79	5.81	5.76	5.7	6.12	> 200
CC1(C)NC(=O)NC1=O [5,5-Dimethylhydantoin]	5.74	5.99	6.06	5.91	5.97	5.93	5.79	> 200
CCCCCCOCCO [Ethylene glycol monohexyl ether]	5.81	6.03	5.9	5.93	5.72	5.89	5.77	> 200
CN(C)C(=O)Cl [Dimethylcarbamoyl chloride]	5.77	5.81	5.82	5.71	5.84	5.9	5.73	> 200

SMILES	mean nematode size ln(EXT) (ln) ([1]; 0.5 µM)	mean nematode size ln(EXT) (ln) ([1]; 1 µM)	mean nematode size ln(EXT) (ln) ([1]; 5 µM)	mean nematode size ln(EXT) (ln) ([1]; 10 µM)	mean nematode size ln(EXT) (ln) ([1]; 50 µM)	mean nematode size ln(EXT) (ln) ([1]; 100 µM)	mean nematode size ln(EXT) (ln) ([1]; 200 µM)	lowest effective concentration [2] [µM]
O=C(O)C1=NN(c2ccc(S(=O)(=O)O)cc2)C(=O)C1N=Nc1ccc(S(=O)(=O)O)cc1 (configuration not stated) [Tartrazine]	6.02	5.96	5.97	5.98	6.03	5.85	5.92	> 200
CCc1cnc(C2=NC(C)(C(C)C)C(=O)N2)c(C(=O)O)c1 (configuration not stated) [Imazethapyr]	5.99	5.93	6.06	6.15	6.12	6.24	6.05	> 200
NC1CCCCC1 [Cyclohexylamine]	5.84	5.95	5.82	5.85	5.98	5.83	5.86	> 200
S=C1NCCN1 [Ethylenethiourea]	6.18	5.97	6.08	6.19	6.12	6.12	5.69	> 200
CCCCCCCCCC [Decane]	5.95	5.8	5.91	5.8	5.87	5.83	5.75	> 200
CCCN(CCC)C(=O)SCC [EPTC]	6.11	6.22	6.09	6	6.1	6.12	5.86	> 200
CNC(=O)O/N=C(\SC)C(=O)N(C)C [Oxamyl]	6.13	6.48	6.09	6.33	6.42	6.43	5.75	> 200
O=C(O)c1cccc(Oc2ccccc2)c1 [3-Phenoxybenzoic acid]	5.87	5.85	5.89	5.87	5.83	5.83	5.91	> 200
OCCCl [2-Chloroethanol]	6	5.9	5.92	5.82	5.91	5.95	5.83	> 200
OCC(CO)(CBr)CBr [2,2-Bis(bromomethyl)-1,3-propanediol]	6.41	5.91	5.99	5.63	5.67	5.93	5.64	200
CCCCCOC(=O)c1ccccc1C(=O)OCCCCC [Dipentyl phthalate]	5.85	5.86	5.89	5.87	5.85	5.81	5.73	> 200
CC(=O)OC[C@H]1O[C@@](COC(C)=O)(O[C@H]2O[C@H](COC(C)=O)[C@@H](OC(C)=O)[C@H](OC(C)=O)[C@H]2OC(C)=O)[C@@H](OC(C)=O)[C@@H]1OC(C)=O [Sucrose octaacetate]	5.78	5.75	5.76	5.75	5.72	5.75	5.73	> 200
OB(O)O [Boric acid]	6.06	6.07	6.08	6.13	6.14	6.18	5.95	> 200
CCNc1nc(NC(C)C)nc(SC)n1 [Ametryn]	6.09	6.82	6.12	6.27	6.45	6.38	5.72	> 200
CCCOc1ccc(S(=O)(=O)N2CCN(CC)CC2)cc1-c1nc2c(CC)n(Cc3ccccn3)nc2c(=O)[nH]1	5.7	6.03	5.83	5.88	5.91	5.88	5.69	> 200
CCN(C(=O)c1cc(C)cc(OC[C@H](C)Nc2ccncc2)c1)C(C)C	5.67	5.78	5.59	5.63	5.56	5.61	5.82	> 200
c1ccc2ncccc2c1 [Quinoline]	5.87	5.87	5.78	5.79	5.78	5.81	5.73	> 200
CCOC(N)=O [Urethane (ethyl carbamate)]	5.96	5.93	5.97	6	5.95	5.91	5.97	> 200
CCCCC(CC)C(=O)OCCOCCOCCOC(=O)C(CC)CCCC (configuration not stated) [Tri(ethylene glycol) bis(2-ethylhexanoate)]	5.84	5.86	6	5.97	5.86	5.84	5.79	> 200
CCOP(=O)(OCC)Oc1cc(C)nc(C(C)C)n1 [Diazoxon]	6.19	6.09	6.08	6.06	6.05	6.1	5.93	> 200
Cc1cc(=O)[nH]c(=S)[nH]1 [Methylthiouracil]	6.01	5.97	5.94	5.97	6	6.12	5.98	> 200
O=C(O)CCCOc1ccc(Cl)cc1Cl [2,4-DB]	6.17	5.97	6.06	6.03	6.13	6.21	5.85	> 200
Oc1cccc(O)c1 [Resorcinol]	5.81	5.86	5.94	5.84	5.88	5.84	5.78	> 200
C#C[C@]1(O)CC[C@H]2[C@@H]3CCc4cc(O)ccc4[C@H]3CC[C@@]21C [17alpha-Ethynylestradiol]	6	5.96	5.9	5.91	6	5.86	5.92	> 200
O=NO [Sodium nitrite]	6	6.02	6.05	6.03	6.08	6.04	5.75	> 200
CCCCOC(=O)c1ccccc1C(=O)OCc1ccccc1 [Butyl benzyl phthalate]	5.93	5.94	6.01	5.98	6.17	5.76	5.67	> 200
COc1ccc(C)cc1N [p-Cresidine]	5.84	5.85	5.84	5.83	5.85	5.89	5.83	> 200
